The results in this text go back to patent publication US20140309295A1, “ANTIEPILEPTIC, HYPOCHOLESTEROLEMIC AND NEUROPROTECTIVE COMPOUND” (NEURON BIOPHARMA, S.A., priority 2009, published 2014).

Experiment [1] relates to human neuroblastoma SK-N-MC cells. Description: Protection against neuronal death induced by oxidative stress (xanthine/xanthine oxidase), WST-1. Type of experiment: cell-based. Here is the method: (§1) The assay was performed on human neuroblastoma SK-N-MC cells in culture from the American Type Culture Collection (ATCC), in all cases strict rules of sterility were followed and the manipulation was performed in class II biological safety cabinets following European standard EN 12469. The cells were maintained in the following culture medium: Minimum Essential Medium Eagle (MEM) supplemented with 1 mM sodium pyruvate, 2 mM L-glutamine, 0.1 mM non-essential amino acids, 0.05 mg/ml gentamicin and 10% fetal bovine serum.
The inhibition caused by compound NST0037 of cell death caused by treatment with xanthine/xanthine oxidase which generates oxidative damage (causes free radicals such as hydrogen peroxide, superoxide anion, hydroxyl radical), which triggers cell death, was analyzed. These cells, not exceeding 15 passages, were seeded on 96-well plates treated for adherent cells with a cell concentration of 5×10^4 cells/well; 3 wells of the plate were seeded for each condition of the assay.
After 24 hours of cell incubation at 37° C. and 5% CO2, the cell treatments were performed with 100 μl of total volume for the following conditions: • Control: culture medium (medium) • Xanthine/xanthine oxidase (XXO): medium plus 10 μM xanthine/60 mU/mL xanthine oxidase, causing the death of 50% of the cells. • XXO plus NST0037: medium plus XXO (10 μM/60 mU/mL) plus NST0037 at 1, 4, 10, 20, 40 or 100 μM.
The cells were incubated (at 37° C. and 5% CO2) with these treatments for 22 hours, after which time the WST-1 reagent (Roche) was added. The Test WST-1 is based on the measurement of metabolic activity. Cell damage causes the loss of the ability of cells to obtain the energy necessary to maintain their metabolic functions and cell growth, therefore the metabolically active (live) cells reduce tetrazolium salt to formazan by means of the succinate-tetrazolium reductase system (of the mitochondrial respiratory chain). The formazan which is formed can be detected colorimetrically since it has an absorbance of 440 nm. The reading was taken in a plate reader at 440 nm 2 hours after adding the reagent.
The assay was performed on human neuroblastoma SK-N-MC cells in culture from the American Type Culture Collection (ATCC), in all cases strict rules of sterility were followed and the manipulation was performed in class II biological safety cabinets following European standard EN 12469. […]
The effect of mevalonate on the protection caused by compound NST0037 against cell death caused by the treatment with xanthine/xanthine oxidase generating oxidative damage and cell death was analyzed. […]
(Tetrazolium dyes change colour on reduction, which living cells bring about.)

Experiment [2] has the same test system. Description: Protection against neuronal death induced by inhibition of PP1 (okadaic acid), WST-1. The class given is cell-based. The settings on record: 40 μM NST0037; 20 nM okadaic acid. Here is the method:
as §1
The inhibition caused by compound NST0037 of cell death caused by the treatment with okadaic acid (OA) which inhibits the activity of protein phosphatase 1 (PP1) was analyzed. OA is one of the most used drugs for studying the phosphorylation mechanism of the tau protein, involved in the pathogenesis and progression of AD. The inhibition of PP1 causes cytoskeleton alterations and mitochondrial damage. […]
The cells were incubated (at 37° C. and 5% CO2) with these treatments for 22 hours, after which time the WST-1 reagent (Roche) was added. […] The formazan which is formed can be detected colorimetrically since it has an absorbance of 440 nm. The reading was taken in a plate reader at 440 nm 2 hours after adding the reagent.

Experiment [3] has as its system FVB/NHan mice inoculated with kainate (KA). Description: Antiepileptic effect against kainate in mice (Racine scale). The class given is in vivo. On the procedure:
All the animals included for the experimental process were 12-week old males of the FVB/NHan strain. The experiments were conducted strictly following the Guidance on the Operation of Animals (Scientific Procedures, Act. 1986). The animals had their respective quarantine period and were treated with maximum precaution to minimize possible contaminations for inoculations and handling.
The animals were intraperitoneally inoculated with 25 mg/kg of kainate (KA) dissolved in PBS. Thirteen animals were pre-treated 24 and 0.5 hours before inoculation with KA by means of intraperitoneal injection with PBS (PBS+KA administration regimen) and 6 were pre-treated 24 and 0.5 hours before inoculation with KA by means of intraperitoneal injection with NST0037 at a dose of 50 mg/kg (NST0037+KA administration regimen). After the inoculation, the animals were individually housed in trays to monitor them. The maximum epilepsy level of the animals was recorded during the observation according to the Racine scale every ten minutes and for at least 120 minutes post-inoculation (m.p.i.).

As for `CCC(CC)C(=O)O[C@H]1C[C@@H](C)C=C2C=C[C@H](C)[C@H](CC[C@@H]3C[C@@H](O)CC(=O)O3)[C@H]21` [NST0037, (1S,2S,6R,8S,8aR)-1,2,6,7,8,8a-hexahydro-3,7-dimethyl-8-[2-[(2R,4R)-tetrahydro-4-hydroxy-6-oxo-2H-pyran-2-yl]ethyl]-1-naphthalenyl-2-ethyl-butyrate], the “maximum protection against death caused by XXO” value in experiment [1] (20 μM NST0037, 10 μM xanthine/60 mU/mL xanthine oxidase, 22 h) was 78%. For the same compound, the “protection against death caused by XXO” value in experiment [1] (40 μM NST0037 (Example 14)) turned out to be 57%. The “protection against death caused by OA” value in experiment [2] worked out at 57%. In addition, the “epileptogenic symptoms from 100 m.p.i.” value in experiment [3] (NST0037+KA regimen) is on record as “caused the disappearance of the epileptogenic symptoms”. For the same compound, the “epilepsy level on the Racine scale” value in experiment [3] (NST0037+KA, 120 minutes observation) is less than 3.
